From patent publication US4207320A, “Amino-substituted imidazo[1,2-a:3,4-a']diquinolin-15-ium salts compositions and method of use” (Warner-Lambert Company, priority 1978, dated 1980)

Legend:
C. krusei [1] = test: Broth Tube Dilution Test, minimal fungicidal concentration; type: cell-based, Candida krusei; settings: Pichia kudriavzevii, 28° C., 24 hours later
Method: (§1) The test compounds are serially diluted in pure dimethylformamide, giving a concentration of 4000, 800, 160 and 32 micrograms/milliliters(μg./ml.).A further dilution (typically a 2-fold or a 5-fold dilution) is made from each of the above serial dilutions into tubes containing 9.4 ml. BactoSabouraud Dextrose Broth, resulting in a set of broth tubes with specific final drug concentrations for which activity is to be determined. Each of the broth tubes is then inoculated with 0.5 ml. of a stock suspension of the same test organism. After inoculation, all of the tubes are incubated at 28° C. The tubes are read 48 hours to 7 days post inoculation, depending on the organism being tested. The lowest concentration of test compound at which growth of the organism is prevented in the broth tubes is taken as the minimal inhibitory concentration (MIC). The Broth+Serum Dilution Test is performed in the same manner as the Broth Tube Dilution Test except that the liquid medium consists of 50% BactoSabouraud Dextrose Broth and 50% normal calf serum from citrated blood. […] The tubes are then read and the lowest concentration of test compound for which there is no growth of the organism in the broth tube is taken as the minimal fungicidal concentration (MFC).

C. stellatoidea [2] = test: Broth Tube Dilution Test, minimal inhibitory concentration; type: cell-based; settings: Candida albicans, 28° C., at 72
Method: (§2) Minimal Inhibitory Concentration (MIC) The test compounds are serially diluted in pure dimethylformamide, giving a concentration of 4000, 800, 160 and 32 micrograms/milliliters(μg./ml.).A further dilution (typically a 2-fold or a 5-fold dilution) is made from each of the above serial dilutions into tubes containing 9.4 ml. BactoSabouraud Dextrose Broth, resulting in a set of broth tubes with specific final drug concentrations for which activity is to be determined. Each of the broth tubes is then inoculated with 0.5 ml. of a stock suspension of the same test organism. After inoculation, all of the tubes are incubated at 28° C. The tubes are read 48 hours to 7 days post inoculation, depending on the organism being tested. The lowest concentration of test compound at which growth of the organism is prevented in the broth tubes is taken as the minimal inhibitory concentration (MIC). The Broth+Serum Dilution Test is performed in the same manner as the Broth Tube Dilution Test except that the liquid medium consists of 50% BactoSabouraud Dextrose Broth and 50% normal calf serum from citrated blood.

C. albicans [3] = test: as above; type: cell-based; settings: Candida albicans, 28° C., at 72
Method: as §2

Geotrichum candidum [4] = test: as above; type: cell-based; settings: 28° C., at 72
Method: as §2

C. tropicalis [5] = test: as above; type: cell-based; settings: Candida tropicalis, 28° C., at 72
Method: as §2

C. parapsilosis [6] = test: as above; type: cell-based, Candida parapsilosis; settings: Lodderomyces parapsilosis, 28° C., at 72
Method: as §2

C. stellatoidea [7] = test: Broth Tube Dilution Test, minimal fungicidal concentration; type: cell-based; settings: Candida albicans, 28° C., 24 hours later
Method: (§3) The test compounds are serially diluted in pure dimethylformamide, giving a concentration of 4000, 800, 160 and 32 micrograms/milliliters(μg./ml.).A further dilution (typically a 2-fold or a 5-fold dilution) is made from each of the above serial dilutions into tubes containing 9.4 ml. BactoSabouraud Dextrose Broth, resulting in a set of broth tubes with specific final drug concentrations for which activity is to be determined. Each of the broth tubes is then inoculated with 0.5 ml. of a stock suspension of the same test organism. After inoculation, all of the tubes are incubated at 28° C. The tubes are read 48 hours to 7 days post inoculation, depending on the organism being tested. The lowest concentration of test compound at which growth of the organism is prevented in the broth tubes is taken as the minimal inhibitory concentration (MIC). The Broth+Serum Dilution Test is performed in the same manner as the Broth Tube Dilution Test except that the liquid medium consists of 50% BactoSabouraud Dextrose Broth and 50% normal calf serum from citrated blood. Minimal Fungicidal Concentrations (MFC) For a determination of fungicidal activity, the broth tubes described above are incubated at 28° C. for 48 hours and then serially diluted 1:100 into Bacto-Sabouraud Dextrose Broth and incubated again for 48 hours. The tubes are then read and the lowest concentration of test compound for which there is no growth of the organism in the broth tube is taken as the minimal fungicidal concentration (MFC).

C. albicans [8] = test: as above; type: cell-based; settings: Candida albicans, 28° C., 24 hours later
Method: as §3

Geotrichum candidum [9] = test: as above; type: cell-based; settings: 28° C., 24 hours later
Method: as §3

C. tropicalis [10] = test: as above; type: cell-based; settings: Candida tropicalis, 28° C., 24 hours later
Method: as §3

C. krusei [11] = test: Broth Tube Dilution Test, minimal inhibitory concentration; type: cell-based, Candida krusei; settings: Pichia kudriavzevii, 28° C., at 72
Method: as §2

C. parapsilosis [12] = test: Broth Tube Dilution Test, minimal fungicidal concentration; type: cell-based, Candida parapsilosis; settings: Lodderomyces parapsilosis, 28° C., 24 hours later
Method: as §1

C. guilliermondi [13] = test: Broth Tube Dilution Test, minimal inhibitory concentration; type: cell-based, Candida gulliermondi; settings: Candida, 28° C., at 72
Method: as §2

C. guilliermondi [14] = test: Broth Tube Dilution Test, minimal fungicidal concentration; type: cell-based, Candida gulliermondi; settings: Candida, 28° C., 24 hours later
Method: as §1

MIC (C. stellatoidea [2]) [µg/mL]	MIC (C. albicans [3]) [µg/mL]	MIC (Geotrichum candidum [4]) [µg/mL]	MIC (C. tropicalis [5]) [µg/mL]	MIC (C. parapsilosis [6]) [µg/mL]	MIC (C. krusei [11]) [µg/mL]	MIC (C. guilliermondi [13]) [µg/mL]	SMILES	MFC (C. krusei [1]) [µg/mL]	MFC (C. stellatoidea [7]) [µg/mL]	MFC (C. albicans [8]) [µg/mL]	MFC (Geotrichum candidum [9]) [µg/mL]	MFC (C. tropicalis [10]) [µg/mL]	MFC (C. parapsilosis [12]) [µg/mL]	MFC (C. guilliermondi [14]) [µg/mL]
2.61	10	10	> 10	10	10	2.5	CC(C)(C)c1ccc2c(ccc3c[n+]4c5ccc(N6CCCC6)cc5ccc4n32)c1.[Cl-] [Example 7, 10-(1,1-Dimethylethyl)-3-(1-pyrrolidinyl)imidazo[1,2-a:3,4-a']diquinolin-15-ium Chloride]	10	5	10	> 10	> 10	> 10	2.5
1.25	2.5	5	10	5	2.5	10	CCc1ccc2c(ccc3c[n+]4c5ccc(N6CCCC6)cc5ccc4n32)c1.[Cl-] [Example 26, 10-Ethyl-3-(1-pyrrolidinyl)imidazo[1,2-a: 3,4-a']diquinolin-15-ium chloride]	2.5	5	2.5	> 10	> 10	> 10	> 10
